Each compound was assayed against human Gal-3 (hGal-3) (Homo sapiens (Human), UniProt P17931) (assay: competitive binding assay: binding of biotinylated hGal-3 to microplate-adsorbed asialofetuin (ASF), spectrophotometric). Details: Activity on hGal-3; mean values of several measurements.
Procedure, shortened: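 Compounds diluted in DMSO competed with biotinylated hGal-3 or hGal-1 (300-1000 ng/mL) for binding to plate-adsorbed asialofetuin for 3 h at 4° C. Bound galectin was detected with streptavidin-peroxidase (80 ng/mL, 1 h, 4° C) and ABTS substrate; IC50 reported as mean of several measurements.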

human Gal-3 (hGal-3), sequence (P17931 whole entry): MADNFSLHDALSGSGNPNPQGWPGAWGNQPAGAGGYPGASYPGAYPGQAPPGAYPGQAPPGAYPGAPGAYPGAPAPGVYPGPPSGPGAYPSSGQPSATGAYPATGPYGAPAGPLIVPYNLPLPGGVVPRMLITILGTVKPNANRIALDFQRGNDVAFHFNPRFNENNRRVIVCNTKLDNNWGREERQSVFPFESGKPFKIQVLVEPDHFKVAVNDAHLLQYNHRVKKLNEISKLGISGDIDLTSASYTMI

Row | SMILES | IC50 [nM]
1 | CO[C@@H]1[C@@H](n2cc(-c3ccc(C#N)c(F)c3)nn2)[C@@H](O)[C@@H](CO)O[C@H]1C(=O)N(c1cc(Br)cc(C#N)c1)[C@H]1CC[C@@H]1O [Example 2.16.5, (2R,3R,4S,5R,6R)-N-(3-bromo-5-cyanophenyl)-4-(4-(4-cyano-3-fluorophenyl)-1H-1,2,3-triazol-1-yl)-5-hydroxy-N-((1S,2S)-2-hydroxycyclobutyl)-6-(hydroxymethyl)-3-methoxytetrahydro-2H-pyran-2-carboxamide] | 243
2 | CO[C@@H]1[C@@H](n2cc(-c3cccc(F)c3)nn2)[C@@H](O)[C@@H](CO)O[C@H]1C(=O)N(c1cc(Cl)cc(C#N)c1)[C@@H]1CCC[C@H]1O [Example 1.15.4R, (2R,3R,4S,5R,6R)-N-(3-chloro-5-cyanophenyl)-4-(4-(3-fluorophenyl)-1H-1,2,3-triazol-1-yl)-5-hydroxy-N-((1R,2R)-2-hydroxycyclopentyl)-6-(hydroxymethyl)-3-methoxytetrahydro-2H-pyran-2-carboxamide] | 838
3 | CO[C@@H]1[C@@H](n2cc(-c3cc(F)c(F)c(F)c3)nn2)[C@@H](O)[C@@H](CO)O[C@H]1C(=O)N(c1cccc(Br)c1)[C@@H]1CC[C@H]1O [Example 2.1.10R, (2R,3R,4S,5R,6R)-N-(3-bromophenyl)-5-hydroxy-N-((1R,2R)-2-hydroxycyclobutyl)-6-(hydroxymethyl)-3-methoxy-4-(4-(3,4,5-trifluorophenyl)-1H-1,2,3-triazol-1-yl)tetrahydro-2H-pyran-2-carboxamide] | 203
4 | CO[C@@H]1[C@@H](n2cc(-c3cc(F)c(Br)c(F)c3)nn2)[C@@H](O)[C@@H](CO)O[C@H]1C(=O)N(c1cc(Cl)cc(C#N)c1)[C@@H]1CCC[C@H]1O [Example 1.6.4R, (2R,3R,4S,5R,6R)-4-(4-(4-bromo-3,5-difluorophenyl)-1H-1,2,3-triazol-1-yl)-N-(3-chloro-5-cyanophenyl)-5-hydroxy-N-((1R,2R)-2-hydroxycyclopentyl)-6-(hydroxymethyl)-3-methoxytetrahydro-2H-pyran-2-carboxamide] | 214
5 | CO[C@@H]1[C@@H](n2cc(-c3ccc(C#N)c(F)c3)nn2)[C@@H](O)[C@@H](CO)O[C@H]1C(=O)N(c1cc(Cl)cc(C#N)c1)[C@H]1CCC[C@@H]1O [Example 1.16.4, (2R,3R,4S,5R,6R)-N-(3-chloro-5-cyanophenyl)-4-(4-(4-cyano-3-fluorophenyl)-1H-1,2,3-triazol-1-yl)-5-hydroxy-N-((1S,2S)-2-hydroxycyclopentyl)-6-(hydroxymethyl)-3-methoxytetrahydro-2H-pyran-2-carboxamide] | 102
6 | CO[C@@H]1[C@@H](n2cc(-c3cc(F)c(Br)c(F)c3)nn2)[C@@H](O)[C@@H](CO)O[C@H]1C(=O)N(c1cc(F)cc(C#N)c1)[C@@H]1CC[C@H]1O [Example 2.6.7R, (2R,3R,4S,5R,6R)-4-(4-(4-bromo-3,5-difluorophenyl)-1H-1,2,3-triazol-1-yl)-N-(3-cyano-5-fluorophenyl)-5-hydroxy-N-((1R,2R)-2-hydroxycyclobutyl)-6-(hydroxymethyl)-3-methoxytetrahydro-2H-pyran-2-carboxamide] | 359
7 | CO[C@@H]1[C@@H](n2cc(-c3cc(F)cc(Br)c3)nn2)[C@@H](O)[C@@H](CO)O[C@H]1C(=O)N(c1cc(C)cc(C#N)c1)[C@H]1CCC[C@@H]1O [Example 1.10.8, (2R,3R,4S,5R,6R)-4-(4-(3-bromo-5-fluorophenyl)-1H-1,2,3-triazol-1-yl)-N-(3-cyano-5-methylphenyl)-5-hydroxy-N-((1S,2S)-2-hydroxycyclopentyl)-6-(hydroxymethyl)-3-methoxytetrahydro-2H-pyran-2-carboxamide] | 157
8 | COc1cc(C#N)cc(N(C(=O)[C@@H]2O[C@H](CO)[C@H](O)[C@H](n3cc(-c4cc(F)cc(Br)c4)nn3)[C@H]2OC)[C@H]2CC[C@@H]2O)c1 [Example 2.10.9, (2R,3R,4S,5R,6R)-4-(4-(3-bromo-5-fluorophenyl)-1H-1,2,3-triazol-1-yl)-N-(3-cyano-5-methoxyphenyl)-5-hydroxy-N-((1S,2S)-2-hydroxycyclobutyl)-6-(hydroxymethyl)-3-methoxytetrahydro-2H-pyran-2-carboxamide] | 224

Stronger by IC50, values ahead:

Row | IC50 [nM] | SMILES
9 | 98.8 | CO[C@@H]1[C@@H](n2cc(-c3cc(F)c(F)c(F)c3)nn2)[C@@H](O)[C@@H](CO)O[C@H]1C(=O)N(c1cc(Br)cc(C#N)c1)[C@@H]1CCC[C@H]1O [Example 1.1.5R, (2R,3R,4S,5R,6R)-N-(3-bromo-5-cyanophenyl)-5-hydroxy-N-((1R,2R)-2-hydroxycyclopentyl)-6-(hydroxymethyl)-3-methoxy-4-(4-(3,4,5-trifluorophenyl)-1H-1,2,3-triazol-1-yl)tetrahydro-2H-pyran-2-carboxamide]
10 | 90.7 | CO[C@@H]1[C@@H](n2cc(-c3ccc(Cl)cc3)nn2)[C@@H](O)[C@@H](CO)O[C@H]1C(=O)N(c1cc(Cl)cc(C#N)c1)[C@H]1CCC[C@@H]1O [Example 1.18.4, (2R,3R,4S,5R,6R)-N-(3-chloro-5-cyanophenyl)-4-(4-(4-chlorophenyl)-1H-1,2,3-triazol-1-yl)-5-hydroxy-N-((1S,2S)-2-hydroxycyclopentyl)-6-(hydroxymethyl)-3-methoxytetrahydro-2H-pyran-2-carboxamide]
11 | 74.8 | CO[C@@H]1[C@@H](n2cc(-c3cc(F)c(C)c(F)c3)nn2)[C@@H](O)[C@@H](CO)O[C@H]1C(=O)N(c1cc(Cl)cc(C#N)c1)[C@@H]1CCC[C@H]1O [Example 1.4.4R, (2R,3R,4S,5R,6R)-N-(3-chloro-5-cyanophenyl)-4-(4-(3,5-difluoro-4-methylphenyl)-1H-1,2,3-triazol-1-yl)-5-hydroxy-N-((1R,2R)-2-hydroxycyclopentyl)-6-(hydroxymethyl)-3-methoxytetrahydro-2H-pyran-2-carboxamide]
12 | 73.1 | CO[C@@H]1[C@@H](n2cc(-c3ccc(C)c(F)c3F)nn2)[C@@H](O)[C@@H](CO)O[C@H]1C(=O)N(c1cc(Br)cc(C#N)c1)[C@@H]1CCC[C@H]1O [Example 1.11.5R, (2R,3R,4S,5R,6R)-N-(3-bromo-5-cyanophenyl)-4-(4-(2,3-difluoro-4-methylphenyl)-1H-1,2,3-triazol-1-yl)-5-hydroxy-N-((1R,2R)-2-hydroxycyclopentyl)-6-(hydroxymethyl)-3-methoxytetrahydro-2H-pyran-2-carboxamide]
13 | 46.3 | CO[C@@H]1[C@@H](n2cc(-c3cc(F)c(Cl)c(Cl)c3)nn2)[C@@H](O)[C@@H](CO)O[C@H]1C(=O)N(c1cc(Br)cc(C#N)c1)[C@H]1CCC[C@@H]1O [Example 1.17.5, (2R,3R,4S,5R,6R)-N-(3-bromo-5-cyanophenyl)-4-(4-(3,4-dichloro-5-fluorophenyl)-1H-1,2,3-triazol-1-yl)-5-hydroxy-N-((1S,2S)-2-hydroxycyclopentyl)-6-(hydroxymethyl)-3-methoxytetrahydro-2H-pyran-2-carboxamide]
14 | 44.5 | CO[C@@H]1[C@@H](n2cc(-c3cc(F)c(F)c(F)c3)nn2)[C@@H](O)[C@@H](CO)O[C@H]1C(=O)N(c1cc(Br)cc(C#N)c1)[C@H]1CC[C@@H]1O [Example 2.1.5, (2R,3R,4S,5R,6R)-N-(3-bromo-5-cyanophenyl)-5-hydroxy-N-((1S,2S)-2-hydroxycyclobutyl)-6-(hydroxymethyl)-3-methoxy-4-(4-(3,4,5-trifluorophenyl)-1H-1,2,3-triazol-1-yl)tetrahydro-2H-pyran-2-carboxamide]
15 | 33.9 | CO[C@@H]1[C@@H](n2cc(-c3cc(F)c(Cl)c(F)c3)nn2)[C@@H](O)[C@@H](CO)O[C@H]1C(=O)N(c1cc(Br)cc(C#N)c1)[C@H]1CCC[C@@H]1O [Example 1.5.5, (2R,3R,4S,5R,6R)-N-(3-bromo-5-cyanophenyl)-4-(4-(4-chloro-3,5-difluorophenyl)-1H-1,2,3-triazol-1-yl)-5-hydroxy-N-((1S,2S)-2-hydroxycyclopentyl)-6-(hydroxymethyl)-3-methoxytetrahydro-2H-pyran-2-carboxamide]
16 | 31 | CO[C@@H]1[C@@H](n2cc(-c3cc(F)c(F)c(F)c3)nn2)[C@@H](O)[C@@H](CO)O[C@H]1C(=O)N(c1cc(Br)cc(Br)c1)[C@H]1CCC[C@@H]1O [Example 1.1.11, (2R,3R,4S,5R,6R)-N-(3,5-dibromophenyl)-5-hydroxy-N-((1S,2S)-2-hydroxycyclopentyl)-6-(hydroxymethyl)-3-methoxy-4-(4-(3,4,5-trifluorophenyl)-1H-1,2,3-triazol-1-yl)tetrahydro-2H-pyran-2-carboxamide]
17 | 28.7 | CO[C@@H]1[C@@H](n2cc(-c3ccc(F)c(F)c3F)nn2)[C@@H](O)[C@@H](CO)O[C@H]1C(=O)N(c1cc(Br)cc(C#N)c1)[C@H]1CCC[C@@H]1O [Example 1.20.5, (2R,3R,4S,5R,6R)-N-(3-bromo-5-cyanophenyl)-5-hydroxy-N-((1S,2S)-2-hydroxycyclopentyl)-6-(hydroxymethyl)-3-methoxy-4-(4-(2,3,4-trifluorophenyl)-1H-1,2,3-triazol-1-yl)tetrahydro-2H-pyran-2-carboxamide]
18 | 17.1 | CO[C@@H]1[C@@H](n2cc(-c3ccc(C)c(F)c3F)nn2)[C@@H](O)[C@@H](CO)O[C@H]1C(=O)N(c1cc(Br)cc(C#N)c1)[C@H]1CC[C@@H]1O [Example 2.11.5, (2R,3R,4S,5R,6R)-N-(3-bromo-5-cyanophenyl)-4-(4-(2,3-difluoro-4-methylphenyl)-1H-1,2,3-triazol-1-yl)-5-hydroxy-N-((1S,2S)-2-hydroxycyclobutyl)-6-(hydroxymethyl)-3-methoxytetrahydro-2H-pyran-2-carboxamide]
19 | 13.6 | CO[C@@H]1[C@@H](n2cc(-c3ccc(Br)c(F)c3F)nn2)[C@@H](O)[C@@H](CO)O[C@H]1C(=O)N(c1cc(Br)cc(C#N)c1)[C@H]1CCC[C@@H]1O [Example 1.12.5, (2R,3R,4S,5R,6R)-4-(4-(4-bromo-2,3-difluorophenyl)-1H-1,2,3-triazol-1-yl)-N-(3-bromo-5-cyanophenyl)-5-hydroxy-N-((1S,2S)-2-hydroxycyclopentyl)-6-(hydroxymethyl)-3-methoxytetrahydro-2H-pyran-2-carboxamide]

From patent US20230348442A1, “GALECTIN-3 INHIBITING 2-HYDROXYCYCLOALKANE-1-CARBAMOYL DERIVATIVES” (Idorsia Pharmaceuticals Ltd, priority 2020, published 2023)
